# Measured values as given in article PMC11674118, “New High-Affinity Peptide Ligands for Kv1.2 Channel: Selective Blockers and Fluorescent Probes” (Cells, 2024).
# Like-named read-outs stand apart in the source and are kept apart here. Where a SMILES comes first, the peptide text is derived from it. Bridges are numbered along the chain shown (N, C = ends).
# Key:
# [1] = tested on: Kv1.2 channels; details: mammalian cells with depolarized membranes; read-out: 50% inhibition of the Rb+ flux through Kv1.2; cited from earlier work
# Text: Kap of MgTx in our experiments is consistent with the last value.
# [2] = tested on: K-Kv1.2 channel; experiment: Whole-cell patch-clamp of Neuro2a cells transfected with K-Kv1.2; assay type: cell-based, human; details: for block of current through K-Kv1.2: 10 nM peptide, whole-cell, representative traces (Figure 8d-g)
# Procedure: The patch-clamp method (whole-cell configuration) was used to measure membrane ion currents as described earlier. All the measurements were carried out at room temperature in a buffer containing (mM) 140 NaCl, 2.8 KCl, 2 MgCl2, 2 CaCl2, 10 HEPES, and 10 glucose (pH 7.4). Resistance of the micropipette tip was 6–8 MΩ. The pipette solution contained (mM) 140 KCl, 6 CaCl2, 2 MgCl2, 2 MgATP, 0.4 NaGTP, 10 HEPES, and 20 BAPTA/KOH (pH 7.3). The holding potential was −40 mV. The membrane potential increased from −70 to +70 mV with the 20 mV step each 20 s and returned to −40 mV. The duration of voltage pulses was 200 ms.
# Measurements were carried out in 24–48 h after transfection of cells. HgTx1 (2 nM), HgTx-G (7.5 nM), Ce1 (10 nM), and Ce4 (10 nM) were dissolved in the extracellular buffer.
# [3] = molecular target: Kv1.1 channel (K-Kv1.1); details: similar analytical system, read-out: Kap, Kv1.1; cited from earlier work
# Text: Table 2 Sequences of Ce1, Ce4, HgTx1, and MgTx peptides and dissociation constants (Kap, nM) of their complexes with Kv1.2, Kv1.1, and Kv1.3 channels. | column: Kap, nM
# [4] = tested on: Kv1.1 channel (K-Kv1.1); experiment: Competitive displacement of A-HgTx from complexes with K-Kv1.1 on Neuro2a cells; assay type: binding; details: for Kd: displacement of A-HgTx (2 nM) from K-Kv1.1, Neuro2a cells (Figure S7), read-out: Kap, Kv1.1
# Text: Content of secondary structures in the studied peptides
# Table S1. Content of secondary structures in the studied peptides (%) according to the CD analysis.
# Peptide α-helix β-sheet Turns Random coil
# Studies of affinity of Ce1 and Ce4 peptides to Kv1.1 and Kv1.3 channels Affinity of MgTx to Kv1.3 channel and peptides Ce1 and Ce4 to Kv1.1 and Kv1.3 channels was studied using previously developed analytical systems based on fluorescent ligand A-HgTx and Kv1.1 (Kv1.3) channels expressed in the membrane of Neuro2a cells in the form of the conjugates with mKate2 fluorescent protein (K-Kv1.1 and K-Kv1.3). The approach based on the competitive displacement of A-HgTx (2 nM) from the complex with the channel by the increasing concentration of the studied peptide (Figure S6) and the previously approved formalism (described in the Materials and Methods section) were used to evaluate Kap values for MgTx, Ce1 and Ce4 peptides. For the complexes of MgTx, Ce1 and Ce4 with Kv1.3 channel the Kap values are 1.4±0.7, 13±8 and 30±10 nM, respectively. For the complex of Ce1 with Kv1.1 channel, Kap is equal to 11±5 nM. Since Ce4 […]
# (Figure S6b), Kap of the complex between Ce4 and Kv1.1 is estimated to be higher than 300 nM.
# Figure S7. Competitive displacement of A-HgTx (2 nM) from the complexes with K-Kv1.1 (a, b) and K-Kv1.3 (c) by Ce1, Ce4 and MgTx peptides. (a,c) The dependences of the Rav/Rav0 parameter (see the Materials and Methods section) on the concentration C of the added competitor are shown. Data are averaged over three independent experiments and presented as mean±SEM. (b) Histogram showing the effect of 1 µM Ce4 on the binding of A-HgTx (2 nM) to K-Kv1.1.
# Molecular modeling of Kv1.2 channel and its complexes with peptide blockers
# (1 picture or pasted object on this page, not shown here)
SMILES,IC50 [1] [nM],"block of K-Kv1.2 channel currents ([2]; 2 nM HgTx1, whole-cell, room temperature, n = 10) [%]",Kd [3] [nM],Kd [4] [nM],block of current through K-Kv1.2 [2],displacement of A-HgTx (2 nM) from the complex with Kv1.1 channel ([4]; till the 1 µM concentration of peptide)
"CC[C@H](C)[C@@H]1NC(=O)CNC(=O)[C@H](Cc2ccccc2)NC(=O)[C@H](CCC(N)=O)NC(=O)[C@H](C)NC(=O)[C@H](CCCCN)NC(=O)[C@@H]2CSSC[C@@H](C(=O)N[C@@H](Cc3ccc(O)cc3)C(=O)N3CCC[C@H]3C(=O)N[C@@H](Cc3c[nH]cn3)C(=O)O)NC(=O)[C@H](CCCCN)NC(=O)[C@@H]3CSSC[C@H](NC(=O)[C@H](CCC(N)=O)NC(=O)[C@H](CCCCN)NC(=O)[C@@H]4CCCN4C(=O)[C@H](CO)NC(=O)[C@H]([C@@H](C)O)NC(=O)[C@@H](NC(=O)[C@H](CCCCN)NC(=O)[C@@H](NC(=O)[C@H](CC(=O)O)NC(=O)[C@@H](NC(=O)[C@@H](NC(=O)[C@@H](N)[C@@H](C)O)C(C)C)[C@@H](C)CC)C(C)C)CSSC[C@H](NC(=O)[C@H](CCCCN)NC(=O)[C@H](C)NC(=O)CNC(=O)[C@H](C)NC(=O)[C@H](CCCNC(=N)N)NC1=O)C(=O)N[C@@H](CCSC)C(=O)N[C@@H](CC(N)=O)C(=O)NCC(=O)N[C@@H](CCCCN)C(=O)N3)C(=O)N[C@@H](CC(C)C)C(=O)N1CCC[C@H]1C(=O)N1CCC[C@H]1C(=O)N2 [HgTx1, hongotoxin 1] (H-TVIDVKCTSPKQCLPPCKAQFGIRAGAKCMNGKCKCYPH-OH; disulfide 7-29, 13-34, 17-36 (inferred); N-terminus and C-terminus assumed)",0.14,84 ± 2,0.03 ± 0.02,,,
"CC[C@H](C)[C@H](NC(=O)[C@@H](NC(=O)[C@@H](N)[C@@H](C)O)C(C)C)C(=O)N[C@@H](CC(N)=O)C(=O)N[C@H](C(=O)N[C@@H](CCCCN)C(=O)N[C@H]1CSSC[C@@H]2NC(=O)[C@H](CCCCN)NC(=O)[C@H](C)NC(=O)CNC(=O)[C@H](C)NC(=O)[C@H](Cc3c[nH]cn3)NC(=O)[C@@H]3CCCN3C(=O)CNC(=O)[C@H](Cc3ccc(O)cc3)NC(=O)[C@H](CC(C)C)NC(=O)[C@H](CC(=O)O)NC(=O)[C@H](CCCCN)NC(=O)[C@@H]3CSSC[C@@H](C(=O)N[C@@H](Cc4ccc(O)cc4)C(=O)N[C@@H](CC(N)=O)C(=O)N[C@@H](CC(N)=O)C(=O)O)NC(=O)[C@H](CCCCN)NC(=O)[C@H](CSSC[C@H](NC(=O)[C@H](CCC(N)=O)NC(=O)[C@H](CCCCN)NC(=O)[C@@H]4CCCN4C(=O)[C@H](CO)NC(=O)[C@H]([C@@H](C)O)NC1=O)C(=O)N[C@@H](CC(C)C)C(=O)N[C@@H](CCCCN)C(=O)N1CCC[C@H]1C(=O)N3)NC(=O)[C@H](CCCCN)NC(=O)CNC(=O)[C@H](CC(N)=O)NC(=O)[C@H](CCSC)NC2=O)C(C)C [Ce1] (H-TVINVKCTSPKQCLKPCKDLYGPHAGAKCMNGKCKCYNN-OH; disulfide 7-29, 13-34, 17-36 (inferred); N-terminus and C-terminus assumed)",,,,11 ± 5,block current through the channel,
"CC[C@H](C)[C@H](NC(=O)[C@H](CCCCN)NC(=O)[C@H](Cc1ccc(O)cc1)NC(=O)[C@@H]1CSSC[C@@H]2NC(=O)[C@@H]3CCCN3C(=O)[C@H](CC(C)C)NC(=O)[C@H](CC(C)C)NC(=O)[C@@H]3CSSC[C@H](NC(=O)[C@H](CCCCN)NC(=O)CNC(=O)[C@H](CC(N)=O)NC(=O)[C@H](CCSC)NC(=O)[C@H](CSSC[C@H](NC(=O)[C@H](CCCCN)NC(=O)[C@@H](NC(=O)[C@H](CC(N)=O)NC(=O)[C@@H](NC(=O)[C@@H](NC(=O)[C@@H](N)[C@@H](C)O)[C@@H](C)CC)[C@@H](C)CC)C(C)C)C(=O)N[C@@H]([C@@H](C)O)C(=O)N[C@@H](CO)C(=O)N4CCC[C@H]4C(=O)N[C@@H](CCCCN)C(=O)N[C@@H](CCC(N)=O)C(=O)N3)NC(=O)[C@H](CCCCN)NC(=O)[C@H](C)NC(=O)CNC(=O)[C@H](C)NC(=O)[C@H](Cc3c[nH]cn3)NC(=O)[C@H]([C@@H](C)CC)NC(=O)CNC(=O)[C@H](Cc3ccc(O)cc3)NC(=O)[C@H]([C@@H](C)CC)NC(=O)[C@H](CCC(=O)O)NC(=O)[C@H](CCCCN)NC2=O)C(=O)N[C@@H](CCCCN)C(=O)N1)C(=O)O [Ce4] (H-TIINVKCTSPKQCLLPCKEIYGIHAGAKCMNGKCKCYKI-OH; disulfide 7-29, 13-34, 17-36 (inferred); N-terminus and C-terminus assumed)",,,,> 300,block current through the channel,does not displace A-HgTx
